US20130252923A1, “SKIN-BEAUTIFYING AGENT” (MEGMILK SNOW BRAND CO., LTD., priority 2007, published 2013)

Key:
[1] = system: hairless mice (Hos: HR-1); assay: Water content of the skin (Corneometer) after oral administration, animal test; format: in vivo; details: three weeks, positive control
Protocol: (§1) A skin-beautifying effect of milk-derived phospholipid was evaluated using the compositions containing milk-derived phospholipid obtained in Examples 1 and 2. In experiments 13-week-old hairless mice (Hos: HR-1) were used. […] A water content and TEWL of the skin of the tail and the base of the tail of the mice were measured at the initiation of the test and the completion of the test. Values obtained at the completion of the test were calculated by setting each value obtained at the initiation of the test as 100, and the obtained values were provided as a rate of increase. A water content of the skin and TEWL were measured with a Corneometer and a Tewameter manufactured by Courage +Khazaka electronic GmbH, respectively.

[2] = system: hairless mice (Hos: HR-1); assay: TEWL of the skin (Tewameter) after oral administration, animal test; format: in vivo; details: three weeks, positive control
Protocol: as §1

[3] = 3 mg sphingomyelin per kg body weight, oral once daily, value at initiation = 100

Substance: sphingomyelin
- Rate of water content increase [1, 3]: 124%
- water content of the skin, times as much as the water content of the skin of group A ([1]; 3 mg/kg sphingomyelin solely): 1.25 times
- Rate of TEWL increase [2, 3]: 86%
- TEWL, times that of group A ([2]; 3 mg/kg sphingomyelin solely): 0.85 times
